SMILES strings stand for the structures. Like-named read-outs stand apart in the source and are kept apart here.

For one assay, the system named is NCI-H295R cells. The assay is described as follows: Cortisol production in 8-Br-cAMP-stimulated NCI-H295R cells (ELISA). Format: cell-based, human. The settings on record: for Cortisol production concentration: 0.5 mM 8-Br-cAMP, 12 h pretreatment + 24 h; for Cortisol production concentration / inhibition of cortisol production increased by 0.5 mM 8-Br-cAMP (in words): NCI-H295R; for reduction in cortisol production: compared with non-treatment group (with 8-Br-cAMP treatment); for inhibition of cortisol production increased by 0.5 mM 8-Br-cAMP (in words): 20, 50, 100 μM. On the procedure:
Cortisol secretion inhibitory effects by allithiamine (Shanghai iChemical Technology CO., LTD., China), fursultiamine (Toronto Research Chemicals, Canada), or benfotiamine (Sigma-Aldrich, St. Louis, MO, USA), which are thiamine (vitamin B1) based compounds, were tested. For this, cortisol reduction effects in adrenal tumors that excessively secret cortisol were measured.
NCI-H295R (ATCC #CRL-2128) cells, a human adrenocortical carcinoma cell line, were dispensed into 24-well plates at 2.5×10^5 cells/well. Then, the cells were incubated in DMEM/F12 growth media containing 2.5% Nu-serum, 1% ITS (insulin, transferrin, and selenium), bovine serum albumin (BSA), linoleic acid, and penicillin/streptomycin for 48 hours.
Thereafter, the media were exchanged with serum-free media, and then the NCI-H295R cells were pretreated with allithiamine, fursultiamine, or benfotiamine at concentrations of 20 μM, 50 μM, and 100 μM for 12 hours. The cells were treated with 8-bromoadenosine 3′,5′-cyclic monophosphate (8-Br-cAMP) at a concentration of 0.5 mM to increase cortisol synthesis, and again treated with allithiamine, fursultiamine, or benfotiamine at 20 μM, 50 μM, and 100 μM, followed by reaction for 24 hours. After the reaction, cell cultures were collected, and the amount of cortisol produced in the cells was measured using an enzyme-linked immunosorbent assay (ELISA) kit (Enzo Life Sciences, Inc., NY, USA).

A further assay relates to CRH-overexpressed mice. On the procedure: To investigate high-cortisol inhibitory effects, C57BL/6J normal mice (WT-con) aged 8 to 9 weeks and corticotropin-releasing hormone (CRH)-overexpressed mice, which are Cushing's syndrome animal models, were used. One group of CRH-overexpressed mice were orally administered with 60 mg/kg fursultiamine once a day for 9 weeks (CRH tg-Fur 60 mpk).
During this period, the body weight change was monitored by measuring body weights once a week. To check the concentration of corticosterone (in cases of rodents), blood was collected from the tail vein and serum was isolated. The concentration of corticosterone was measured from the isolated serum by using an enzyme-linked immunosorbent assay (ELISA) kit (Enzo Life Sciences, Inc., NY, USA). The fat mass was measured 6 weeks after administration of the drug by using a body composition analyzer (MiniSpec LF 50, Bruker Optics, Germany), and the fat distribution was again monitored with micro CT images 8 weeks after administration.

A further assay has as its system 8-week-old male mice. Particulars: for corticosterone concentration: serum, oral 24 h and 2 h before stress. Here is the method:
For the restraint stress test, 8-week-old male mice were used, and were orally administered with fursultiamine once 24 hours before and once 2 hours before stress induction. For induction of stress, the mice were individually placed head-first into well-ventilated 50 mL polypropylene tubes, which were then tied with a cap of the 50 mL tube, and the mice were confined for 2 hours. Before stress induction, 1 hour and 2 hours after induction, and at 1 hour of recovery, blood was collected from the tail vein and serum was isolated, and then the concentration of corticosterone was measured using ELISA kit.

As to `CC(=C(CCO)SSCC1CCCO1)N(C=O)Cc1cnc(C)nc1N` (stereo in doubt) [fursultiamine], the Cortisol production concentration in the assay on NCI-H295R cells (20 μM compound) worked out at 14.1 ng/mL; in the assay with NCI-H295R cells (50 μM compound) it was 9.0 ng/mL; in the assay with NCI-H295R cells (100 μM compound), 7.5 ng/mL. The “reduction in cortisol production” value in the assay on NCI-H295R cells (50 μM) was determined as 43%; in the assay with NCI-H295R cells (100 μM) it was 52.4%. Further, in the assay with NCI-H295R cells, the “inhibition of cortisol production increased by 0.5 mM 8-Br-cAMP (in words)” value is listed as “significantly inhibited the cortisol production”. Moreover, the “corticosterone synthesis concentration (in words)” value with CRH-overexpressed mice (CRH-overexpressed mice, 60 mg/kg oral) is “smaller compared with the normal group”. Further, the “fat mass, Body weight (%)” value in the assay on CRH-overexpressed mice (CRH-overexpressed mice, 60 mg/kg oral once a day, 6 weeks after administration, body composition analyzer) is listed as 23.4%. The “increase in body weight (in words)” value with CRH-overexpressed mice (CRH-overexpressed mice, 60 mg/kg oral, 9 weeks, vs CRH-overexpressed control) is “smaller increase in body weight compared with the control”. Moreover, in the assay on CRH-overexpressed mice (CRH-overexpressed mice, 60 mg/kg oral, vs control), the “fat mass (in words)” value is given as “smaller compared with the control”. This molecule also registered a Corticosterone in the assay on CRH-overexpressed mice (serum, CRH-overexpressed mice, 60 mg/kg oral once a day) of 87.1 ng/mL. Besides, the body weight is listed as 18.4 in the assay with CRH-overexpressed mice (week 0, CRH-overexpressed mice, 60 mg/kg oral once a day); 17.8 with CRH-overexpressed mice (week 1, CRH-overexpressed mice, 60 mg/kg oral once a day); 17.8 in the assay on CRH-overexpressed mice (week 2, CRH-overexpressed mice, 60 mg/kg oral once a day); 18.2 in the assay with CRH-overexpressed mice (week 3, CRH-overexpressed mice, 60 mg/kg oral once a day); 18.1 in the assay with CRH-overexpressed mice (week 4, CRH-overexpressed mice, 60 mg/kg oral once a day); 18.4 in the assay on CRH-overexpressed mice (week 5, CRH-overexpressed mice, 60 mg/kg oral once a day). For the same molecule, the body weight in the assay on CRH-overexpressed mice (week 6, CRH-overexpressed mice, 60 mg/kg oral once a day) was determined as 17.9; in the assay with CRH-overexpressed mice (week 7, CRH-overexpressed mice, 60 mg/kg oral once a day) it was 19.8; in the assay on CRH-overexpressed mice (week 8, CRH-overexpressed mice, 60 mg/kg oral once a day), 19.7; in the assay with CRH-overexpressed mice (week 9, CRH-overexpressed mice, 60 mg/kg oral once a day), 19.2. In addition, the “rate of increase in corticosterone level after stress induction (in words)” value with 8-week-old male mice (restraint stress, oral administration) is recorded as “rate of increase in corticosterone level decreased”. The corticosterone concentration in the assay with 8-week-old male mice (0 min (before stress induction)) was found to be 63.6; in the assay on 8-week-old male mice (60 min (1 hour after stress induction)) it was 260.4; in the assay with 8-week-old male mice (120 min (2 hours after stress induction)), 261.4; in the assay on 8-week-old male mice (180 min (1 hour of recovery)) it was 105.8.
With `C=CCSS/C(CCO)=C(/C)N(C=O)Cc1cnc(C)nc1N` [allithiamine], the Cortisol production concentration in the assay on NCI-H295R cells (20 μM compound) was found to be 10.5 ng/mL; in the assay with NCI-H295R cells (50 μM compound), 6.4 ng/mL; in the assay on NCI-H295R cells (100 μM compound), 2.8 ng/mL. In addition, the “reduction in cortisol production” value with NCI-H295R cells (50 μM) turned out to be 50.7%; with NCI-H295R cells (100 μM), 78.7%. The “inhibition of cortisol production increased by 0.5 mM 8-Br-cAMP (in words)” value in the assay on NCI-H295R cells is “significantly inhibited the cortisol production”.
With `C/C(=C(\CCOP(=O)(O)O)SC(=O)c1ccccc1)N(C=O)Cc1cnc(C)nc1N` [benfotiamine], the Cortisol production concentration in the assay on NCI-H295R cells (20 μM compound) is 14.0 ng/mL; in the assay on NCI-H295R cells (50 μM compound), 12.0 ng/mL; with NCI-H295R cells (100 μM compound) it was 8.6 ng/mL. Moreover, the “reduction in cortisol production” value in the assay on NCI-H295R cells (50 μM) worked out at 22.6%; in the assay on NCI-H295R cells (100 μM), 44.3%. Moreover, the “inhibition of cortisol production increased by 0.5 mM 8-Br-cAMP (in words)” value in the assay with NCI-H295R cells was “significantly inhibited the cortisol production”.

The values above are taken from patent US12377111B2, “Composition, comprising thiamine derivative, for prevention or treatment of hypercortisolemia” (KYUNGPOOK NATIONAL UNIVERSITY INDUSTRY-ACADEMIC COOPERATION …, priority 2018, dated 2025).
